Where “and” joins values, the source holds several entries; their conditions need not be identical. Identical values can stand only once.
Experiment: xn = mol fraction of the nth substance listed

N#CCCCCC#N + CS(C)=O
303.15 K, 101.33 kPa
Conditions | viscosity [mPa·s]
x1 = 0.1031 | 2.027
x1 = 0.2999 | 2.489
x1 = 0.4015 | 2.76
x1 = 0.5024 | 3.06
x1 = 0.5947 | 3.343
x1 = 0.6945 | 3.682
x1 = 0.8441 | 4.243

CC(O)C(=O)O (stereo not given) + C[C@H](N)C(=O)O
101 kPa, x2 = 0.5
Conditions | viscosity [mPa·s]
298.15 K | 23710
318.15 K | 3481

CC(O)C(=O)O (stereo not given) + C[N+](C)(C)CCO.[Cl-]
viscosity
Conditions | 100 kPa | 101 kPa
293.15 K, x2 = 0.1 | 92.67 mPa·s | –
293.15 K, x2 = 0.1667 | 107.5 mPa·s | –
293.15 K, x2 = 0.3333 | 229.3 mPa·s | –
293.15 K, x2 = 0.5 | 527 mPa·s | –
300.15 K, x2 = 0.1 | 52.02 mPa·s | –
300.15 K, x2 = 0.1667 | 59.99 mPa·s | –
300.15 K, x2 = 0.3333 | 127 mPa·s | –
300.15 K, x2 = 0.5 | 276.9 mPa·s | –
303.15 K, x2 = 0.5 | – | 1245 mPa·s
308.15 K, x2 = 0.5 | – | 877.3 mPa·s
313.15 K, x1 = 0.57 | – | 267.5 mPa·s
313.15 K, x1 = 0.9 | – | 103.5 mPa·s
313.15 K, x1 = 0.94 | – | 103.5 mPa·s
313.15 K, x2 = 0.1 | 31.27 mPa·s | –
313.15 K, x2 = 0.1667 | 35.62 mPa·s | –
313.15 K, x2 = 0.3333 | 79.44 mPa·s | –
313.15 K, x2 = 0.5 | 157.6 mPa·s | 626.3 mPa·s
318.15 K, x2 = 0.5 | – | 452.1 mPa·s
323.15 K, x2 = 0.1 | 20.21 mPa·s and 20.21 mPa·s | –
323.15 K, x2 = 0.1667 | 23.07 mPa·s | –
323.15 K, x2 = 0.3333 | 51 mPa·s | –
323.15 K, x2 = 0.5 | 97.82 mPa·s | 335.1 mPa·s

Clc1cccc2ccccc12 + Cc1cc(C)cc(C)c1
viscosity [mPa·s], 101.33 kPa
Conditions | x1 = 0.0983 | x1 = 0.2041 | x1 = 0.2992 | x1 = 0.3988 | x1 = 0.4984 | x1 = 0.6008 | x1 = 0.6999 | x1 = 0.8017 | x1 = 0.9016
298.15 K | 0.688 | 0.807 | 0.929 | 1.086 | 1.251 | 1.476 | 1.706 | 2.019 | 2.376
303.15 K | 0.644 | 0.753 | 0.863 | 1.003 | 1.15 | 1.346 | 1.551 | 1.826 | 2.138
308.15 K | 0.605 | 0.703 | 0.803 | 0.927 | 1.062 | 1.239 | 1.419 | 1.661 | 1.935

Clc1cccc2ccccc12 + Cc1ccc(C)cc1
viscosity [mPa·s], 101.33 kPa
Conditions | x1 = 0.0966 | x1 = 0.1961 | x1 = 0.2964 | x1 = 0.3991 | x1 = 0.4981 | x1 = 0.597 | x1 = 0.7003 | x1 = 0.7974 | x1 = 0.8991
298.15 K | 0.635 | 0.737 | 0.847 | 1.002 | 1.16 | 1.36 | 1.614 | 1.899 | 2.294
303.15 K | 0.596 | 0.687 | 0.789 | 0.926 | 1.074 | 1.25 | 1.475 | 1.723 | 2.072
308.15 K | 0.562 | 0.644 | 0.738 | 0.863 | 0.997 | 1.158 | 1.357 | 1.576 | 1.882

Clc1ccccc1 + Cc1ccc(C)cc1
101 kPa
Conditions | viscosity [mPa·s]
293.15 K, x1 = 0.1144 | 0.598
293.15 K, x1 = 0.2316 | 0.621
293.15 K, x1 = 0.337 | 0.641
293.15 K, x1 = 0.4432 | 0.657
293.15 K, x1 = 0.5417 | 0.673
293.15 K, x1 = 0.6319 | 0.687
293.15 K, x1 = 0.7398 | 0.706
293.15 K, x1 = 0.8385 | 0.722
293.15 K, x1 = 0.9124 | 0.734
298.15 K, x1 = 0.1363 | 0.57
298.15 K, x1 = 0.2224 | 0.585
298.15 K, x1 = 0.3453 | 0.608
298.15 K, x1 = 0.4555 | 0.625
298.15 K, x1 = 0.5832 | 0.645
298.15 K, x1 = 0.6956 | 0.667
298.15 K, x1 = 0.7881 | 0.679
298.15 K, x1 = 0.9065 | 0.695
303.15 K, x1 = 0.1144 | 0.534
303.15 K, x1 = 0.2318 | 0.55
303.15 K, x1 = 0.3419 | 0.572
303.15 K, x1 = 0.4624 | 0.587
303.15 K, x1 = 0.5653 | 0.602
303.15 K, x1 = 0.6803 | 0.615
303.15 K, x1 = 0.7947 | 0.635
303.15 K, x1 = 0.9082 | 0.649

Clc1ccccc1 + Cc1cccc(C)c1
101 kPa
Conditions | viscosity [mPa·s]
293.15 K, x1 = 0.1317 | 0.622
293.15 K, x1 = 0.2304 | 0.64
293.15 K, x1 = 0.3342 | 0.658
293.15 K, x1 = 0.4457 | 0.675
293.15 K, x1 = 0.5734 | 0.692
293.15 K, x1 = 0.6411 | 0.7
293.15 K, x1 = 0.7297 | 0.715
293.15 K, x1 = 0.8241 | 0.725
293.15 K, x1 = 0.9089 | 0.737
298.15 K, x1 = 0.115 | 0.587
298.15 K, x1 = 0.2331 | 0.605
298.15 K, x1 = 0.3319 | 0.621
298.15 K, x1 = 0.465 | 0.641
298.15 K, x1 = 0.565 | 0.655
298.15 K, x1 = 0.6929 | 0.671
298.15 K, x1 = 0.7812 | 0.685
298.15 K, x1 = 0.9072 | 0.697
303.15 K, x1 = 0.1144 | 0.55
303.15 K, x1 = 0.2301 | 0.571
303.15 K, x1 = 0.3415 | 0.585
303.15 K, x1 = 0.4598 | 0.605
303.15 K, x1 = 0.562 | 0.615
303.15 K, x1 = 0.6931 | 0.63
303.15 K, x1 = 0.8136 | 0.645
303.15 K, x1 = 0.904 | 0.651
308.15 K, x2 = 0.0886 | 0.661
308.15 K, x2 = 0.2076 | 0.6411
308.15 K, x2 = 0.3076 | 0.6254
308.15 K, x2 = 0.4147 | 0.6081
308.15 K, x2 = 0.5146 | 0.5927
308.15 K, x2 = 0.6138 | 0.578
308.15 K, x2 = 0.715 | 0.562
308.15 K, x2 = 0.8146 | 0.5474
308.15 K, x2 = 0.9338 | 0.5309
313.15 K, x2 = 0.0886 | 0.6235
313.15 K, x2 = 0.2076 | 0.6053
313.15 K, x2 = 0.3076 | 0.5896
313.15 K, x2 = 0.4147 | 0.5741
313.15 K, x2 = 0.5146 | 0.5604
313.15 K, x2 = 0.6138 | 0.5458
313.15 K, x2 = 0.715 | 0.5302
313.15 K, x2 = 0.8146 | 0.5163
313.15 K, x2 = 0.9338 | 0.5007
